Test results from patent US4988686A, “Cephem compounds and anti-bacterial agent” (Meiji Seika Kabushiki Kaisha, priority 1988, dated 1991).
Converted amounts (≈) assume the structure as drawn. Where two headings read alike, the source gives them in different places. Blank lines part the entries; values can stand above or below the compound they belong to.

How the values were obtained:
Assay in all cases: agar-dilution method, minimum inhibitory concentration
Format in all cases: cell-based
[1] = test system: Enterobacter cloacae GN7471
Description: (§1) In order to illustrate the utility of the objective compound (I), anti-bacterial activities measured by the agar-dilution method for some of these compounds (I) are shown in table 1.

Escherichia coli 255 = test system: Escherichia coli 255
Description: as §1

[2] = test system: Klebsiella pneumoniae GN69
Description: as §1

Proteus vulgaris 76 = test system: Proteus vulgaris 76
Description: as §1

[3] = test system: Cytrobacter freundii GN346; conditions: read-out: Minimum Inhibitory Concentration
Description: as §1

[4] = test system: Pseudomonas aeruginosa E-2
Description: as §1

Escherichia coli No. 29 = test system: Escherichia coli No. 29
Description: as §1

[5] = test system: Pseudomonas aeruginosa IMA-1007
Description: as §1

[6] = test system: Staphylococcus aureus 209PJC-1
Description: as §1

[7] = test system: Bacillus subtilis ATCC 6633
Description: as §1

[8] = test system: Pseudomonas aeruginosa M-0148
Description: as §1

[9] = test system: Pseudomonas cepacia M-0527; conditions: Burkholderia cepacia, M0527
Description: as §1

[10] = test system: Serratia marcescens No. 1
Description: as §1

[11] = Enterobacter cloacae GN7471, agar-dilution method, read-out: Minimum Inhibitory Concentration
[12] = Klebsiella pneumoniae GN69, agar-dilution method, read-out: Minimum Inhibitory Concentration
[13] = Proteus vulgaris 76, agar-dilution method, read-out: Minimum Inhibitory Concentration
[14] = Cytrobacter freundii GN346, agar-dilution method
[15] = E2, Pseudomonas aeruginosa E-2, agar-dilution method, read-out: Minimum Inhibitory Concentration
[16] = IMA1007, Pseudomonas aeruginosa IMA-1007, agar-dilution method, read-out: Minimum Inhibitory Concentration
[17] = 209PJC1, Staphylococcus aureus 209PJC-1, agar-dilution method, read-out: Minimum Inhibitory Concentration
[18] = ATCC6633, Bacillus subtilis ATCC 6633, agar-dilution method, read-out: Minimum Inhibitory Concentration
[19] = M0148, Pseudomonas aeruginosa M-0148, agar-dilution method, read-out: Minimum Inhibitory Concentration
[20] = Serratia marcescens No. 1, agar-dilution method, read-out: Minimum Inhibitory Concentration

SMILES: CC(C)(O/N=C(\C(=O)N[C@@H]1C(=O)N2C(C(=O)O)=C(/C=C/c3cc(=O)c(O)cn3O)CS[C@H]12)c1csc(N)n1)C(=O)O [Example 5, (6R,7R)-7-[(Z)-2-(2-aminothiazol-4-yl)-2-(1-methyl-1carboxy)ethoxyiminoacetamido]-3-[2-(1,5-dihydroxy-4-pyridon-2-yl)vinyl]-ceph-3-em-4-carboxylic acid, trans-isomer]
MIC [1, 11]: 0.78 mg/L (≈ 1.29 µM)
MIC (Escherichia coli 255): ≤ 0.025 mg/L
MIC [2, 12]: ≤ 0.025 mg/L
MIC (Proteus vulgaris 76; [13]): ≤ 0.025 mg/L
MIC [3, 14]: 12.5 mg/L (≈ 20.6 µM)
MIC [4, 15]: ≤ 0.025 mg/L
MIC (Escherichia coli No. 29): 0.1 mg/L (≈ 0.165 µM)
MIC [5, 16]: ≤ 0.025 mg/L
MIC [6, 17]: > 100 mg/L
MIC [7, 18]: 100 mg/L (≈ 165 µM)
MIC [8, 19]: ≤ 0.025 mg/L
MIC [9]: ≤ 0.025 mg/L
MIC [10, 20]: 0.05 mg/L (≈ 0.0824 µM)

SMILES: CC(C)(O/N=C(\C(=O)N[C@@H]1C(=O)N2C(C(=O)O)=C(/C=C/c3cc(=O)c(O)cn3Cc3ccncc3)CS[C@H]12)c1csc(N)n1)C(=O)O [Example 21, (6R,7R)-7-[(Z)-2-aminothiazol-4-y1)-2-(1-methyl-1-carboxy)ethoxyiminoacetamido]-3-[2-(5-hydroxy-1-(4-pyridyl)methyl-4-pyridon-2-y1)vinyl]-ceph-3-em-4carboxylic acid, trans-isomer]
MIC [1, 11]: 1.56 mg/L (≈ 2.29 µM)
MIC (Escherichia coli 255): 0.1 mg/L (≈ 0.147 µM)
MIC [2, 12]: 0.1 mg/L (≈ 0.147 µM)
MIC (Proteus vulgaris 76; [13]): 0.05 mg/L (≈ 0.0733 µM)
MIC [3, 14]: 6.25 mg/L (≈ 9.17 µM)
MIC [4, 15]: 0.05 mg/L (≈ 0.0733 µM)
MIC (Escherichia coli No. 29): 0.1 mg/L (≈ 0.147 µM)
MIC [5, 16]: ≤ 0.025 mg/L
MIC [6, 17]: 100 mg/L (≈ 147 µM)
MIC [7, 18]: 12.5 mg/L (≈ 18.3 µM)
MIC [8, 19]: 0.2 mg/L (≈ 0.293 µM)
MIC [9]: ≤ 0.025 mg/L
MIC [10, 20]: 0.1 mg/L (≈ 0.147 µM)

SMILES: CO/N=C(\C(=O)N[C@@H]1C(=O)N2C(C(=O)O)=C(/C=C/c3cc(=O)c(O)cn3C)CS[C@H]12)c1csc(N)n1 [Example 7, (6R ,7R)-7 - [(Z )-2-(2-aminothiazol-4-yl)-2-methoxyiminoacetamido]-3-[2-(5-hydroxy-1-methyl-4-pyridon-2-yl)vinyl]-ceph-3-em-4-carboxylic acid, trans-isomer]
MIC [1, 11]: 0.1 mg/L (≈ 0.188 µM)
MIC (Escherichia coli 255): 0.1 mg/L (≈ 0.188 µM)
MIC [2, 12]: 0.05 mg/L (≈ 0.0939 µM)
MIC (Proteus vulgaris 76; [13]): ≤ 0.025 mg/L
MIC [3, 14]: 1.56 mg/L (≈ 2.93 µM)
MIC [4, 15]: 1.56 mg/L (≈ 2.93 µM)
MIC (Escherichia coli No. 29): 0.05 mg/L (≈ 0.0939 µM)
MIC [5, 16]: 1.56 mg/L (≈ 2.93 µM)
MIC [6, 17]: 6.25 mg/L (≈ 11.7 µM)
MIC [7, 18]: 0.78 mg/L (≈ 1.46 µM)
MIC [8, 19]: 12.5 mg/L (≈ 23.5 µM)
MIC [9]: ≤ 0.025 mg/L
MIC [10, 20]: ≤ 0.025 mg/L

SMILES: CC(C)(O/N=C(\C(=O)N[C@@H]1C(=O)N2C(C(=O)[O-])=C(C[n+]3ccccc3)CS[C@H]12)c1csc(N)n1)C(=O)O [Ceftazidime, reference compound]
MIC ([1]; Enterobacter cloacae, GN7471, read-out: Minimum Inhibitory Concentration): 3.13 mg/L (≈ 5.73 µM)
MIC (Escherichia coli 255): 25 mg/L (≈ 45.7 µM)
MIC ([2]; Klebsiella pneumoniae, GN69, read-out: Minimum Inhibitory Concentration): 0.1 mg/L (≈ 0.183 µM)
MIC (Proteus vulgaris 76; Proteus vulgaris, 76, read-out: Minimum Inhibitory Concentration): 0.05 mg/L (≈ 0.0915 µM)
MIC [3]: 25 mg/L (≈ 45.7 µM)
MIC ([4]; Pseudomonas aeruginosa, E2, read-out: Minimum Inhibitory Concentration): 0.39 mg/L (≈ 0.714 µM)
MIC (Escherichia coli No. 29): 0.2 mg/L (≈ 0.366 µM)
MIC ([5]; Pseudomonas aeruginosa, IMA1007, read-out: Minimum Inhibitory Concentration): 0.78 mg/L (≈ 1.43 µM)
MIC ([6]; Staphylococcus aureus, 209PJC1, read-out: Minimum Inhibitory Concentration): 3.13 mg/L (≈ 5.73 µM)
MIC ([7]; Bacillus subtilis, ATCC6633, read-out: Minimum Inhibitory Concentration): 3.13 mg/L (≈ 5.73 µM)
MIC ([8]; Pseudomonas aeruginosa, M0148, read-out: Minimum Inhibitory Concentration): 1.56 mg/L (≈ 2.85 µM)
MIC [9]: 0.39 mg/L (≈ 0.714 µM)
MIC ([10]; Serratia marcescens, NO.1, read-out: Minimum Inhibitory Concentration): ≤ 0.025 mg/L

SMILES: Cn1cc(O)c(=O)cc1/C=C/C1=C(C(=O)O)N2C(=O)[C@@H](NC(=O)/C(=N\OC(C)(C)C(=O)O)c3csc(N)n3)[C@H]2SC1 [Example 12, (6R,7R)-7-[(Z)-2-(2-aminothiazol-4-y1)-2-(1-methyl-1carboxy)ethoxyiminoacetamido]-3-[2-(5-hydroxy-1-methyl-4-pyridon-2-yl)vinyl]-ceph-3-em-4-carboxylic acid, trans-isomer]
MIC [1, 11]: 0.2 mg/L (≈ 0.331 µM)
MIC (Escherichia coli 255): 0.05 mg/L (≈ 0.0827 µM)
MIC [2, 12]: 0.05 mg/L (≈ 0.0827 µM)
MIC (Proteus vulgaris 76; [13]): ≤ 0.025 mg/L
MIC [3, 14]: 3.13 mg/L (≈ 5.18 µM)
MIC [4, 15]: 0.05 mg/L (≈ 0.0827 µM)
MIC (Escherichia coli No. 29): 0.1 mg/L (≈ 0.165 µM)
MIC [5, 16]: ≤ 0.025 mg/L
MIC [6, 17]: 100 mg/L (≈ 165 µM)
MIC [7, 18]: 12.5 mg/L (≈ 20.7 µM)
MIC [8, 19]: 0.2 mg/L (≈ 0.331 µM)
MIC [9]: ≤ 0.025 mg/L
MIC [10, 20]: 0.1 mg/L (≈ 0.165 µM)

Continued by falling MIC [1, 11], values first:

MIC [1, 11]: 1.56 mg/L (≈ 2.84 µM)
MIC (Escherichia coli 255): 0.2 mg/L (≈ 0.365 µM)
MIC [2, 12]: 0.2 mg/L (≈ 0.365 µM)
MIC (Proteus vulgaris 76; [13]): 0.1 mg/L (≈ 0.182 µM)
MIC [3, 14]: 25 mg/L (≈ 45.6 µM)
MIC [4, 15]: 0.78 mg/L (≈ 1.42 µM)
MIC (Escherichia coli No. 29): 0.2 mg/L (≈ 0.365 µM)
MIC [5, 16]: 0.78 mg/L (≈ 1.42 µM)
MIC [6, 17]: 12.5 mg/L (≈ 22.8 µM)
MIC [7, 18]: 0.78 mg/L (≈ 1.42 µM)
MIC [8, 19]: 12.5 mg/L (≈ 22.8 µM)
MIC [9]: 12.5 mg/L (≈ 22.8 µM)
MIC [10, 20]: 0.2 mg/L (≈ 0.365 µM)
SMILES: CO/N=C(\C(=O)N[C@@H]1C(=O)N2C(C(=O)O)=C(/C=C\c3cc(=O)c(O)cn3OC)CS[C@H]12)c1csc(N)n1 [Example 10]

MIC [1, 11]: 0.05 mg/L (≈ 0.0935 µM)
MIC (Escherichia coli 255): ≤ 0.025 mg/L
MIC [2, 12]: 0.05 mg/L (≈ 0.0935 µM)
MIC (Proteus vulgaris 76; [13]): ≤ 0.025 mg/L
MIC [3, 14]: 0.1 mg/L (≈ 0.187 µM)
MIC [4, 15]: 0.1 mg/L (≈ 0.187 µM)
MIC (Escherichia coli No. 29): ≤ 0.025 mg/L
MIC [5, 16]: 0.1 mg/L (≈ 0.187 µM)
MIC [6, 17]: 25 mg/L (≈ 46.8 µM)
MIC [7, 18]: 6.25 mg/L (≈ 11.7 µM)
MIC [8, 19]: 0.2 mg/L (≈ 0.374 µM)
MIC [9]: ≤ 0.025 mg/L
MIC [10, 20]: ≤ 0.025 mg/L
SMILES: CO/N=C(\C(=O)N[C@@H]1C(=O)N2C(C(=O)O)=C(/C=C/c3cc(=O)c(O)cn3O)CS[C@H]12)c1csc(N)n1 [Example 2, (6R, 7R)-7-[(Z)-2-(2-aminothiazol-4-yl)-2-methoxyiminoacetamido]-3-[2-(1,5-dihydroxy-4-pyridon-2-yl)vinyl]-ceph-3-em-4-carboxylic]
